The values that follow come from DBAASP.

Holding throughout (test): ≥ marks a high value that may be exact or a test limit, other limits are often not marked, values filed in µg/mL are converted to µM
Experiment [1] relates to Aspergillus fumigatus KCTC 4165.
The test system of experiment [2] is Pseudomonas aeruginosa KCTC 1637.
The subject of experiment [3] is Streptococcus pyogenes KCTC 3096.
The subject of experiment [4] is Staphylococcus aureus KCTC 1621.
Experiment [5] deals with Salmonella typhimurium KCTC 1926.
Experiment [6] concerns Candida albicans TIMM 1768.
In experiment [7] the test system is Escherichia coli KCTC 1682.
For experiment [8], the system named is Bacillus subtilis KCTC 1918.
The test system of experiment [9] is Micrococcus luteus ATCC 10240.
The next experiment concerns Escherichia coli BL21AI.
Experiment [10] relates to Bacillus subtilis DSM 347.
Experiment [11] has as its system Escherichia coli DSM 10233.
The next experiment has as its system Escherichia coli 1103.
For experiment [12], the system named is Klebsiella pneumoniae DSM 681.
In experiment [13] the test system is Staphylococcus aureus CCARM 3543.
Experiment [14] concerns Staphylococcus epidermidis KCTC 1917.
Experiment [15] deals with Pseudomonas aeruginosa CCARM 2109.
Experiment [16] has as its system Staphylococcus aureus CCARM 3001.
Experiment [17] has as its system Bacillus subtilis KCTC 3068.
Experiment [18] has as its system Pseudomonas aeruginosa CCARM 2095.

SMILES strings stand for the structures. ≈ marks a conversion by molar mass, not a printed value. Where only a bound is given, the exact number is not on record here.

`CC[C@H](C)[C@H](NC(=O)[C@H](CCCCN)NC(=O)[C@H](CCCCN)NC(=O)[C@H](CC(C)C)NC(=O)[C@H](CCCCN)NC(=O)[C@H](CCC(=O)O)NC(=O)CN)C(=O)NCC(=O)N[C@@H](CCCCN)C(=O)N[C@@H](CCCCN)C(=O)N[C@H](C(=O)N[C@@H](CCCCN)C(=O)N[C@@H](CC(N)=O)C(=O)N[C@@H](Cc1ccccc1)C(=O)N[C@@H](Cc1ccccc1)C(=O)N[C@@H](CCC(N)=O)C(=O)N[C@@H](CCCCN)C(=O)N[C@@H](CC(C)C)C(=O)O)[C@@H](C)CC` [GEKLKKIGKKIKNFFQKL]: the MIC in experiment [1] is 25 µM (≈ 53.7 µg/mL); in [2], 3.12 µM (≈ 6.7 µg/mL); in experiment [3], 25 µM (≈ 53.7 µg/mL); in [4], 12.5 µM (≈ 26.8 µg/mL); in [5] it was 6.25 µM (≈ 13.4 µg/mL); in [6] it was 25 µM (≈ 53.7 µg/mL). In addition, the minimum inhibitory concentration (MIC) in experiment [7] and in experiment [8] was 12.5 µM (≈ 26.8 µg/mL) each time.
As for `CC[C@H](C)[C@H](NC(=O)[C@@H]1CCCN1C(=O)[C@H](CCC(N)=O)NC(=O)[C@@H]1CCCN1C(=O)[C@H](CCCN=C(N)N)NC(=O)[C@@H]1CCCN1C(=O)[C@@H]1CCCN1C(=O)[C@H](Cc1cnc[nH]1)NC(=O)[C@@H]1CCCN1C(=O)[C@H](CCCN=C(N)N)NC(=O)[C@@H](N)CC(C)C)C(=O)N[C@@H](Cc1ccc(O)cc1)C(=O)N[C@H](C(=O)N1CCC[C@H]1C(=O)N[C@@H](CCCN=C(N)N)C(=O)N[C@@H](CC(N)=O)C(=O)N[C@@H](CC(N)=O)C(=O)NCC(N)=O)C(C)C` [LRPHPPRPQPIYVPRNNG], the MIC (in experiment [9]; in the experiment on Escherichia coli BL21AI; in experiment [10]; in experiment [11]; with Escherichia coli 1103; in [12]) was at least 59.3 µM each time.
As to `NC(=O)[C@H](CCCN=C(N)N)NC(=O)[C@H](CCCN=C(N)N)NC(=O)[C@H](Cc1c[nH]c2ccccc12)NC(=O)[C@H](CCCN=C(N)N)NC(=O)[C@H](CCCN=C(N)N)NC(=O)[C@H](Cc1c[nH]c2ccccc12)NC(=O)[C@H](CCCN=C(N)N)NC(=O)[C@H](CCCN=C(N)N)NC(=O)[C@H](Cc1c[nH]c2ccccc12)NC(=O)[C@H](CCCN=C(N)N)NC(=O)[C@@H](N)CCCN=C(N)N` [RRWRRWRRWRR], the minimum inhibitory concentration (MIC) worked out at 4 µM (≈ 7.3 µg/mL) in experiment [13]; 8 µM (≈ 14.6 µg/mL) in experiment [2]; 2 µM (≈ 3.65 µg/mL) in [14]; 16 µM (≈ 29.2 µg/mL) in experiment [15]; 8 µM (≈ 14.6 µg/mL) in experiment [16]; 8 µM (≈ 14.6 µg/mL) in experiment [4]. For the same compound, the MIC came to 4 µM (≈ 7.3 µg/mL) in experiment [5], 4 µM (≈ 7.3 µg/mL) in [17], 8 µM (≈ 14.6 µg/mL) in experiment [7] and 16 µM (≈ 29.2 µg/mL) in experiment [18].

By MIC is commonly meant the smallest concentration in the dilution series that meets the test's criterion for growth inhibition. Read a high MIC as weaker potency.
